Read-outs that look alike come from different tables or passages of the source.
Experiments:
[1] = tested on: HT-1080 (human connective tissue fibrosarcoma); assay: MTT cytotoxicity assay, HT-1080; type: cell-based; conditions: for IC50: Homo sapiens, read-out: IC50 (µg/mL) HT-1080
Procedure: (§1) The evaluation of the in vitro cytotoxicity (IC50, half maximal inhibitory concentration) of the abovementioned compounds and their structural derivatives was assessed using the standard colorimetric 3-(4,5-dimethylthiazol-2-yl)-2,5-diphenyltetrazolium bromide (MTT) assay on two monolayer tumour cell lines, namely HT-1080 (human connective tissue fibrosarcoma) and MH-22A (mouse hepatocarcinoma). Additionally, the impact of the compound on non-cancerous “normal” cells—mouse fibroblasts (NIH3T3)—was estimated in order to measure the basal toxicity (LD50, median lethal dose). The obtained results were used for investigation of the structure–activity relationships and exploration of the effect of substituents on cellular response and toxicity. The estimated LD50 gives information regarding the compound properties and could potentially be used to select promising compounds by providing a starting dose for in vivo experiments.
The HT-1080 (human connective tissue fibrosarcoma, ATCC® CCL-121™), MH-22A (mouse hepatocarcinoma, ECACC Cat. No. 96121721), A-549 (human lung carcinoma, ATCC® CCL-185™), NIH3T3 (Swiss Albino mouse embryo fibroblast, ECACC Cat. No. 93061524), Hek293 (human embryonic kidney, ATCC® CRL-1573™), BHK-21 (Syrian hamster kidney, ATCC® CCL-10™), A-431 (human epidermoid carcinoma, ATCC® CRL-1555™), Saos-2 (human osteosarcoma, ATCC® HTB-85™), HeLa (human epitheloid cervix carcinoma, ATCC® CCL-2™), U937 (human myeloid leukaemia, ATCC® CRL-1593.2™), C6 (rat glioma, ATCC® CCL-107™), and B16-F10 (murine melanoma, ATCC® CRL-6475™) cell lines were obtained from the American Type Culture Collection (ATCC) and European Collection of Authenticated Cell Cultures (ECACC).
HT-1080, MH-22A, A-549, NIH3T3, BHK-21, A-431, HeLa, and B16-F10 cells were cultured in Dulbecco’s Modified Eagle’s Medium (DMEM) with 2 mM glutamine and 10% foetal bovine serum (FBS). Hek293 cells were cultured in Eagle’s Minimum Essential Medium with 10% foetal bovine serum. U937 cells were cultured in RPMI-1640 Medium with 2 mM glutamine and 10% foetal bovine serum. C6 cells were cultured in Ham’s F12 Medium with 2 mM glutamine and 10% foetal bovine serum. Saos-2 cells were cultured in McCoy’s 5a Medium with 2 mM glutamine and 10% foetal bovine serum. The cells were incubated at 37 °C with 5% CO2, 95% air, and complete humidity. Once ~90% confluence was reached, they were detached using 0.05% trypsin/EDTA and counted. The cells were plated at optimally determined densities for the logarithmic phase of growth. These cells were then suspended at a concentration of 4000 cells/well for HT-1080, MH-22A, A-549, NIH3T3, BHK-21, A-431, HeLa, B16-F10, Hek293, and Saos-2 cells and a concentration of 9000 cells/well for U937, C6, Hek293, and GM08402 cells and added onto a 96-well plate. For background absorption, some wells remained cell free, i.e., as a blank control. Cells were incubated for 72 h at 37 °C and 5% CO2 where they were exposed to a media containing serial dilutions of the investigated compounds (n = 3). Cell viability was measured using the 3-(4,5-dimethylthiazol-2-yl)-2,5-diphenyl-tetrazolium bromide (MTT) assay. In brief, after incubating with compounds, the culture medium was removed and fresh medium with 0.2 mg/mL MTT was added to each well of the plate. After incubation (3 h, 37 °C, 5% CO2), the medium with MTT solution was removed and replaced with 200 µL DMSO and 25 µL Sorenson’s glycine buffer (glycine 0.1 M, NaCl 0.1 M, pH: 10.5 with 0.1 M NaOH). The plate was shaken for 15 min at room temperature and the optical density (OD) of the wells was determined using a multichannel spectrophotometer (Thermo Scientific Multiskan EX) at 540 nm. The quantity of the control cells was taken in calculations as 100%. The IC50 value was calculated using the program Graph Pad Prism® 3.0.

[2] = Basal cytotoxicity, neutral red uptake (NRU) assay, with LD50 estimated from IC50; type: cell-based; conditions: mouse
Procedure: as §1
To assess basal cytotoxicity, the neutral red uptake (NRU) assay was conducted following a modified version of the standard protocol of Stokes’ [71], as validated by the NICEATM-ECVAM study. The NRU cytotoxicity assay determines the ability of viable cells to incorporate and bind a supravital dye, neutral red (NR).
NIH3T3 cells (9000 cells/well) were cultured in 96-well plates in DMEM medium supplemented with 5% FBS for 24 h. Subsequently, the cells were exposed to the test compounds over a range of seven concentrations (1000 µg/mL, 316 µg/mL, 100 µg/mL, 31 µg/mL, 10 µg/mL, 3.0 µg/mL, and 1.0 µg/mL) for 24 h. Untreated cells were used as a control. After the incubation period, the medium was removed from all plates and a solution of NR was added (250 µL, 0.05 mg/mL NR in DMEM 24 h pre-incubated at 37 °C and then filtered before use through a 0.22 µm syringe filter). The plates were incubated for 3 h, followed by three washes with phosphate-buffered saline (PBS). The cells were then treated with a mixture of ethanol (50%) and water (49%) supplemented with 1% acetic acid. The absorbance of NR was measured using a spectrophotometer multiplate reader (Infinite M1000; Tecan Austria GmbH, Salzburg, Austria) at 540 nm. The optical density (OD) was then calculated using the following formula: ODtreated cells×100/ODcontrol cells.
The IC50 values were calculated using the program Graph Pad Prism® 3.0.
In vitro test results were employed to estimate the starting dose for acute oral systemic toxicity tests in rodents (LD50). The LD50 value was calculated using the in vitro IC50 value and a following formula: logLD50(mM/kg)=0.439×logIC50(mM)+0.621
The value was then converted to mg/kg and the compounds classified into four toxicity categories. Category 1 (highly toxic): LD50 ≤ 5 mg/kg; Category 2 (moderately toxic): 5 < LD50 ≤ 50 mg/kg; Category 3 (slightly toxic): 50 < LD50 ≤ 300 mg/kg; Category 4 (practically non-toxic): 300 < LD50 ≤ 2000 mg/kg.

[3] = estimated from in vitro NRU IC50 (24 h) by log LD50 = 0.439 x log IC50 + 0.621, read-out: Basal Cytotoxicity (NIH3T3) LD50
[4] = estimated from in vitro NRU IC50 (24 h), read-out: Basal cytotoxicity (NIH3T3) LD50 mM/kg

SMILES | times higher cytotoxicity towards HT-1080 than 6d ([1]; 6e versus 6d) | IC50 ([1]; HT-1080, 72 h treatment, MTT) | LD50 at 24 h [2, 3] | LD50 at 24 h [2, 4] | IC50 (µg/mL) HT-1080 ([1]; 72 h treatment, MTT) | LD50 at 24 h ([2]; NIH3T3 cells, estimated from in vitro NRU IC50 (24 h) by log LD50 = 0.439 x log IC50 + 0.621, read-out: Basal Cytotoxicity (NIH3T3) LD50) | IC50 ([1]; HT-1080, 72 h)
CCCCCCCCCCCCCCCC[n+]1ccc(C=CC=Cc2cc3c4c(c2)CCCN4CCC3)cc1.[Br-] [Compound 6e, 1-hexadecyl-4-(4-(2,3,6,7-tetrahydro-1H,5H-pyrido[3,2,1-ij]quinolin-9-yl)buta-1,3-dien-1-yl)pyridin-1-ium bromide] | 1.4 times | 1 ± 0.03 µg/mL | 477 ± 11 mg/kg | 800 µmol/kg |  |  | 
CCCCCCCCCCCC[n+]1ccc(C=Cc2cc3c4c(c2)CCCN4CCC3)cc1.[Br-] [Compound 6d, 1-dodecyl-4-(2-(2,3,6,7-tetrahydro-1H,5H-pyrido[3,2,1-ij]quinolin-9-yl)vinyl)pyridin-1-ium bromide] |  | 1.4 ± 0.3 µg/mL | 169 ± 18 mg/kg | 300 µmol/kg |  |  | 
CCCCCCCCCCCCCCCC[n+]1ccc(C=Cc2cc(OC)c(OC)c(OC)c2)cc1.[Br-] [Compound 6b] |  |  |  |  | 0.18 ± 0.02 µg/mL |  | 
CCCCCCCCCCCCCCCC[n+]1ccc(C=CC=Cc2ccc(OC)cc2)cc1.[Br-] [Compound 6c, 1-hexadecyl-4-(4-(4-methoxyphenyl)buta-1,3-dien-1-yl)pyridin-1-ium bromide] |  | 0.2 ± 0.04 µg/mL | 85 ± 7 mg/kg | 160 µmol/kg |  |  | 
C(C=Cc1cc2c3c(c1)CCCN3CCC2)=Cc1cc[n+](CCC[n+]2ccc(C=CC=Cc3cc4c5c(c3)CCCN5CCC4)cc2)cc1.[Br-].[Br-] [Compound 7b, 1,1′-(propane-1,3-diyl)bis(4-(4-(2,3,6,7-tetrahydro-1H,5H-pyrido[3,2,1-ij]quinolin-9-yl)buta-1,3-dien-1-yl)pyridin-1-ium) dibromide] |  | 6 ± 0.2 µg/mL | 857 ± 13 mg/kg |  |  |  | 
CCCCCCCCCCCC[n+]1ccc(C=Cc2cc(OC)c(OC)c(OC)c2)cc1.[Br-] [Compound 6a, 4-(3,4,5-trimethoxystyryl)-N-dodecylpyridinium bromide] |  | 0.22 ± 0.06 µg/mL |  | 500 µmol/kg |  | 249 ± 3 mg/kg | 
C(=C\c1cc2c3c(c1)CCCN3CCC2)/c1cc[n+](CCC[n+]2ccc(/C=C/c3cc4c5c(c3)CCCN5CCC4)cc2)cc1 [Compound 7a] |  |  | 1100 ± 20 mg/kg |  |  |  | 2 ± 0.3 µg/mL

— PMC10535741, “Styrylpyridinium Derivatives for Fluorescent Cell Imaging” (Pharmaceuticals, 2023)
